# Laboratory results published in article PMC5434815, “The role of histidines in amyloid β fibril assembly” (Febs Letters, 2017).
# Columns and labels:
# [1] = molecular target: immobilised Aβ fibrils / fibrillar end; conditions: neutral pH; compared with Aβ1–40; cited from earlier work
# Excerpt: Table 1 Relative change of association and dissociation rates of Aβ1–40 wt and the His‐Ala Aβ variants, and the potentiation of Aβ fibril formation as a function of lowering the pH. RA, Relative association; RD, Relative dissociation; PnF, Potentiation factor KD(pH7.4)/KD(pH5.5) | column: pH 7.4 / KD (nM); pH 5.5 / KD (nM) || The formation of Aβ fibrils requires an initial nucleation event, and fibril elongation involves the addition of monomers to an existing fibril. […] The KD for Aβ1–40 can be as much as 120 times lower at pH 4.5 than pH 7.4. […] It is therefore of interest to elucidate the stabilising factors associated with fibril stability and the potentiating ... || (+ 3 further places)
# [2] = molecular target: Amyloid β 1–40 H6A, H13A, H14A; experiment: SPR; preformed fibrils immobilised on a CM5 chip by amine coupling (3500 RU), probed with monomers of the same variant; monomer onto fibril end; 25 °C, 20 μL/min, 20 mM acetate pH 5.5, 150 mM NaCl; slow phase of dissociation only; KD = RD/RA x KD of Aβ1-40 wt (1 nM, from earlier work)
# [3] = molecular target: Amyloid β 1–40 H6A, H13A, H14A; experiment: SPR; preformed fibrils immobilised on a CM5 chip by amine coupling (3500 RU), probed with monomers of the same variant; monomer onto fibril end; 25 °C, 20 μL/min, 20 mM phosphate pH 7.4, 150 mM NaCl; slow phase of dissociation only; KD = RD/RA x KD of Aβ1-40 wt (100 nM, from earlier work)
# [4] = test system: corresponding immobilised fibrils (fibrillar form of Aβ); experiment: SPR dissociation rate k(off) of Aβ fibrils, slow phase, relative to Aβ1–40 wt; assay type: binding; conditions: 150 mM NaCl, 25 °C, after 2 μM monomer injection, slow phase, points before 100 s excluded, one exponential decay, Aβ1–40 wt = 1
# Procedure: (§1) Recombinant variants of Aβ1–40, Aβ1–40 H6A, Aβ1–40 H13A, Aβ1–40 H14A and Aβ1–40 H6A, H13A, H14A were obtained from AlexoTech (Umeå, Sweden). All lyophilised peptides were solubilised in 20 mM NaOH and separated by size‐exclusion chromatography (Superdex 10/300, GE Life Science, Uppsala, Sweden) in PBS with 2 mM EDTA, 5 mM NaOH and 150 mM NaCl. The pH of all purified peptide solutions was adjusted using a stock solution of phosphate or acetate buffer to give a final buffer concentration corresponding to 20 mM phosphate (pH 7.4) or acetate (pH 5.5) and 150 mM NaCl.
# (§2) The interaction study between the fibrillar form of Aβ and its monomeric form was performed using a BIAcore® 3000 biosensor (GE Healthcare®, Uppsala, Sweden) equipped with a CM5 sensor chip (GE Healthcare®). First, the fibrillar form of Aβ was immobilised at a density of 3500 response units (RUs) on the dextran layer of the chip using standard amino coupling reagents at pH 4.0. All SPR experiments were performed at 25 °C at a flow rate of 20 μL·min^−1 in either a 20 mM phosphate buffer (pH 7.4) or 20 mM acetate buffer (pH 5.5). All experiments were performed in the presence of 150 mM NaCl, which represents a physiological ion‐strength.
# (§3) All sensograms were corrected for nonspecific interactions using a reference surface according to standard procedures 16.
# Note that the dissociation phase exposes a biphasic curvature. This is highly representative and frequently observed when performing these kinds of experiments. […] All analyses of decay rates within this work are therefore exclusively focused on the slower second phase of dissociation.
# In contrast to the association rate, kon, the rate of dissociation, koff, is independent of the concentration of monomers. Subsequent to probing, the immobilised fibrils with free monomers, the rate of dissociation can be seen as a decrease in the signal over time.
# Because the latter part of the curve, representing the slower phase of dissociation (indicated by arrow 3 Fig. 1), strongly dominates the interaction strength, we have exclusively focused on this part, and no points before 100 s were included in the curve. The dissociation curve could then be fitted to a one exponential decay.
# [5] = test system: immobilised Aβ fibrils / fibrillar end; experiment: Fibril stability (KD, RD/RA, potentiation factor) from SPR association and dissociation; assay type: binding; conditions: 25 °C, relative to Aβ1–40 wt
# Procedure: as §2, §3
# While a simple interaction between, for example, a receptor and ligand can easily be determined through saturation experiments, this cannot be done with polymers since they, per definition, cannot be saturated.
# This problem can, however, be circumvented by defining the concentration of free monomers where the fibrils are at steady state, i.e. the concentration of free monomers where neither association nor dissociation can be detected. We have previously shown that the KD for Aβ1–40 wt at neutral pH is around 100 nM and around 1 nM at pH 5.5 11, 13. The KD at neutral pH has also been investigated by Hasegawa and co‐workers 14 with similar results. All figures used here are therefore given as relative values to the KD for Aβ1–40 wt corresponding to 100 nM at neutral pH and 1 nM at pH 5.5.
# Multiplying the relative RD/RA with the KD for Aβ 1–40 wt will then give the KD for the histidine derivatives.
# [6] = test system: corresponding immobilised fibrils (fibrillar form of Aβ); experiment: SPR association rate k(on) of Aβ monomers onto immobilised fibrils, relative to Aβ1–40 wt; assay type: binding; conditions: 150 mM NaCl, 25 °C, 20 μL·min^−1, CM5 chip, fibrils at 3500 RU, end state after 60 s injection, Aβ1–40 wt = 1
# Procedure: as §1, §2
# Due to the polymeric nature of amyloid fibrils, the covalent immobilisation on the sensor chip, likely only occurs in minor fraction of the accessible amino groups. This treatment is therefore not anticipated to influence the overall incorporation of monomers in a significant manner. However, the influence from using immobilised fibrils or the dextran layer cannot be fully excluded and should therefore be disclosed.
# as §3
# Probing free monomeric Aβ against immobilised fibrils using SPR is a frequently used technique for measuring the intrinsic kinetic properties of Aβ polymerisation 11, 14, 17, 18, 19.
# Fibrils from recombinant variants of Aβ1–40, Aβ1–40 H6A, Aβ1–40 H13A, Aβ1–40 H14A and Aβ1–40 H6A, H13A, H14A were prepared by prolonged incubation in either PBS (pH 7.4) or acetate buffer pH 5.5 containing 150 mM NaCl. Fibrils immobilised on a CM5 chip were then probed with their monomeric counterpart at different concentrations of Aβ monomers and analysed by SPR. Samples were injected for exactly 60 s and the maximal value at the end state of each injection (indicated by arrow 1 in Fig. 1A) was plotted as a function of the monomeric concentration, Fig. 2. This generates an association rate at each point of measurement. A guideline is given in the figures to illustrate the linearity.
# By comparing the rate between the different Aβ variants, it is possible to determine relative differences in k(on).
Kd [2] [nM],RA (association rate relative to Aβ1-40 wt) [2],RD (dissociation rate relative to Aβ1-40 wt) [2],Kd [3] [nM],RA (association rate relative to Aβ1-40 wt) [3],RD (dissociation rate relative to Aβ1-40 wt) [3],"RD/RA ([5]; pH 7.4, 150 mM NaCl)","RD/RA ([5]; pH 5.5, 150 mM NaCl)",Substance,"critical concentration (KD), in words [1]","RD, relative dissociation (k(off) versus Aβ1–40 wt) ([4]; pH 5.5, 20 mM acetate)","RD, relative dissociation (k(off) versus Aβ1–40 wt) ([4]; pH 7.4, 20 mM phosphate)","RA, relative association (k(on) versus Aβ1–40 wt) ([6]; pH 5.5, 20 mM acetate)","RA, relative association (k(on) versus Aβ1–40 wt) ([6]; pH 7.4, 20 mM phosphate)"
,,,,,,,,Aβ1–42: one of the two dominant forms of amyloid β,slightly lower,,,,
5.31,1.57,8.33,1230,0.22,2.7,,,"Amyloid β 1–40 H6A, H13A, H14A (peptide)",,,,,
,,,,,,7.94,,Aβ1–40 H14A,,2.22,2.70,1.01,0.34
,,,,,,4.27,1.43,Aβ1–40 H6A,,2.78,1.92,1.94,0.45
,,,,,,12.27,5.31,"Aβ1–40 H6A, H13A, H14A: recombinant Aβ1–40 variant where all three histidines have been exchanged for alanine (DAEFRADSGYEVAAQKLVFFAEDVGSNKGAIIGLMVGGVV; Amyloid-beta protein 40; UniProt P05067 672-711, looked up, variant H6A H13A H14A)",,8.33,2.70,1.57,0.22
